# Structures can show the parent of a compound that is named as a salt.
# Tested on: MCh-induced bronchoconstriction
# Experiment: Einthoven assay: bronchoprotection against methacholine (MCh)-induced bronchoconstriction
# Format: in vivo
# Conditions: Rattus norvegicus, inhaled or nasal, 24 h, read-out: Broncho. at 24 h, Bronchoprotective effect present at 24 h, 100 μg by inhalation, 24 h after administration
# Method: This assay measures the ability of a test compound to provide bronchoprotection against methacholine (MCh)-induced bronchoconstriction in a rat. Male Sprague-Dawley rats (Harlan, Indianapolis, Ind.), weighing between 200 g and 350 g, were used for all studies. Test compound or vehicle (sterile deionized water) were dosed by inhalation (1H) over a 10 min period in a pie shaped inhalation chamber (R+S Molds, San Carlos, Calif.) using 5 mL of dosing solution. […] Rats were dosed with 100 μg of test compound unless otherwise indicated. At predetermined time points, rats were anesthetized with an intraperitoneal (IP) injection of 120 mg/kg inactin (thiobutabarbital). A supplemental dose (40 mg/kg, IP) was administered if the animal responded to physical stimuli (e.g. toe pinch). The surgical site was shaved and a 1-2 cm midline incision of the ventral aspect of the neck was made. The jugular vein was isolated and cannulated with a saline-filled polyethylene catheter (PE-50) to allow IV infusion of MCh. Trachea was dissected free and cannulated with a 14G needle (#NE-014, Small Parts, Miami Lakes, Fla.). After placement of the tracheal cannula, each rat was ventilated using a respirator (Model 683, Harvard Apparatus, Inc., MA) set at a stroke volume of 1 mL/100 g body weight (but not exceeding 2.5 mL volume) and a rate of 90 strokes per minute. A T-connector was placed along the respirator expiratory tubing to allow for measurement of changes in ventilation pressure (VP) using a Biopac transducer that was connected to a Biopac […]) pre-amplifier. Body temperature was maintained at 37° C. using a heating pad. Changes in VP were recorded using the Acknowledge Data Collection Software (Santa Barbara, Calif.). Baseline values were collected for at least 2.5 min. Rats were then challenged with non-cumulative intravenous (IV) infusions of 40 and 80 μg/kg MCh. MCh was infused intravenously for 2.5 minutes from a syringe pump (sp210iw, World Precision Instruments, Inc., Sarasota, Fla.) at a rate of 2 mL/kg/min, with a 2 minute interval between the two doses of MCh. Changes in ventilation pressure (cm H2O) in treated animals are expressed as % inhibition of MCh response relative to control animals. Other bronchoconstrictors, such as histamine and acetylcholine, can be used in place of MCh in this assay. Additionally, guinea pigs can be used instead of rats. […] Inhibition greater than or equal to 30 percent at 24 h is indicative of a long duration of action.
row,SMILES,inhibition in vivo at 0.1 mg [%]
1,"Cc1cc(CNC[C@H](O)c2ccc(O)c3[nH]c(=O)ccc23)ccc1NC(=O)CCCN(C)C(=O)CCN1CCC(OC(=O)Nc2ccccc2-c2ccccc2)CC1 [Compound I-2, Biphenyl-2-ylcarbamic acid 1-(2-{[3-(4-{[(R)-2-hydroxy-2-(8-hydroxy-2-oxo-1,2-dihydroquinolin-5-yl)ethylamino]methyl}-2-methylphenylcarbamoyl)-propyl]methylcarbamoyl}ethyl)piperidin-4-yl ester ditrifluoroacetic acid salt]",< 30
2,"C[C@H](Cc1cccc(CC(=O)NCCCN(C)C(=O)CCN2CCC(OC(=O)Nc3ccccc3-c3ccccc3)CC2)c1)NC[C@H](O)c1ccc(O)c2[nH]c(=O)ccc12 [Compound I-12, Biphenyl-2-ylcarbamic acid 1-[2-({3-[2-(3-{(R)-2-[(R)-2-hydroxy-2-(8-hydroxy-2-oxo-1,2-dihydroquinolin-5-yl)ethylamino]propyl}phenyl)acetylamino]propyl}-methylcarbamoyl)ethyl]piperidin-4-yl ester ditrifluoroacetic acid salt]",< 30
3,"Cc1cc(CNC[C@H](O)c2ccc(O)c3[nH]c(=O)ccc23)ccc1NC(=O)c1cccc(N(C)C(=O)CCN2CCC(OC(=O)Nc3ccccc3-c3ccccc3)CC2)c1 [Compound I-27, Biphenyl-2-ylcarbamic acid 1-(2-{[3-(4-{[(R)-2-hydroxy-2-(8-hydroxy-2-oxo-1,2-dihydroquinolin-5-yl)-ethylamino]methyl}-2-methylphenylcarbamoyl)phenyl]-methylcarbamoyl}ethyl)piperidin-4-yl ester ditrifluoroacetic acid salt]",< 30
4,"Cc1cc(CNC[C@H](O)c2ccc(O)c3[nH]c(=O)ccc23)ccc1NC(=O)c1ccc(C)c(N(C)C(=O)CCN2CCC(OC(=O)Nc3ccccc3-c3ccccc3)CC2)c1 [Compound I-28, ditrifluoroacetic acid salt]",< 30
5,"COc1cc(CNC[C@H](O)c2ccc(O)c3[nH]c(=O)ccc23)ccc1NC(=O)c1cccc(N(C)C(=O)CCN2CCC(OC(=O)Nc3ccccc3-c3ccccc3)CC2)c1 [Compound I-29, ditrifluoroacetic acid salt]",< 30
6,"Cc1cc(NC(=O)c2cccc(N(C)C(=O)CCN3CCC(OC(=O)Nc4ccccc4-c4ccccc4)CC3)c2)c(C)cc1CNC[C@H](O)c1ccc(O)c2[nH]c(=O)ccc12 [Compound I-30, ditrifluoroacetic acid salt]",< 30
7,"CN(C(=O)CCN1CCC(OC(=O)Nc2ccccc2-c2ccccc2)CC1)c1cccc(C(=O)Nc2cccc(CCNC[C@H](O)c3ccc(O)c4[nH]c(=O)ccc34)c2)c1 [Compound I-32, ditrifluoroacetic acid salt]",< 30
8,"Cc1ccc(C(=O)Nc2cccc(CCNC[C@H](O)c3ccc(O)c4[nH]c(=O)ccc34)c2)cc1N(C)C(=O)CCN1CCC(OC(=O)Nc2ccccc2-c2ccccc2)CC1 [Compound I-33, Biphenyl-2-ylcarbamic acid 1-(2-{[5-(3-{2-[(R)-2-hydroxy-2-(8-hydroxy-2-oxo-1,2-dihydroquinolin-5-yl)-ethylamino]ethyl}phenylcarbamoyl)-2-methylphenyl]-methylcarbamoyl}ethyl)piperidin-4-yl ester ditrifluoroacetic acid salt]",< 30
9,"CN(C(=O)CCN1CCC(OC(=O)Nc2ccccc2-c2ccccc2)CC1)c1cccc(C(=O)Nc2ccc(CCNC[C@H](O)c3ccc(O)c4[nH]c(=O)ccc34)cc2)c1 [Compound I-34, Ditrifluoroacetate]",> 30

# Same assay, conditions: rat, 100 μg by inhalation, 24 h after administration
row,SMILES,Broncho. at 24 h; Bronchoprotective effect present at 24 h
1,Cc1ccc(C(=O)Nc2ccc(CCNC[C@H](O)c3ccc(O)c4[nH]c(=O)ccc34)cc2)cc1N(C)C(=O)CCN1CCC(OC(=O)Nc2ccccc2-c2ccccc2)CC1 [Compound I-35],"Yes (Bronchoprotective effect present at 24 h, e.g., ≧30% inhibition of the MCh response at 24 h in the rat Einthoven assay (100 μg))"

# Source: patent publication US8816088B2 (Theravance, Inc., priority 2009, dated 2014)
